Laboratory results reported in patent US9637453B2, “3-spirocyclic-6-hydroxamic acid tetralins as HDAC inhibitors” (Forma Therapeutics, Inc., priority 2015, dated 2017).

Tests used:
[1] = target: T1, Full length human recombinant HDAC6 (Homo sapiens, UniProt Q9UBN7); test: In vitro histone deacetylase assay, enzymatic HDAC6 (electrophoretic mobility shift assay); format: biochemical; settings: 1 nM HDAC6; 2 μM peptide substrate FAM-RHKK(Ac)—NH2; 25° C.; 12 concentrations; read-out: HDAC6 Activity Range (IC50)
T1 construct: Full length human recombinant HDAC6 and HDAC11 proteins were expressed in baculoviral system
T1 sequence (Q9UBN7 1-1215): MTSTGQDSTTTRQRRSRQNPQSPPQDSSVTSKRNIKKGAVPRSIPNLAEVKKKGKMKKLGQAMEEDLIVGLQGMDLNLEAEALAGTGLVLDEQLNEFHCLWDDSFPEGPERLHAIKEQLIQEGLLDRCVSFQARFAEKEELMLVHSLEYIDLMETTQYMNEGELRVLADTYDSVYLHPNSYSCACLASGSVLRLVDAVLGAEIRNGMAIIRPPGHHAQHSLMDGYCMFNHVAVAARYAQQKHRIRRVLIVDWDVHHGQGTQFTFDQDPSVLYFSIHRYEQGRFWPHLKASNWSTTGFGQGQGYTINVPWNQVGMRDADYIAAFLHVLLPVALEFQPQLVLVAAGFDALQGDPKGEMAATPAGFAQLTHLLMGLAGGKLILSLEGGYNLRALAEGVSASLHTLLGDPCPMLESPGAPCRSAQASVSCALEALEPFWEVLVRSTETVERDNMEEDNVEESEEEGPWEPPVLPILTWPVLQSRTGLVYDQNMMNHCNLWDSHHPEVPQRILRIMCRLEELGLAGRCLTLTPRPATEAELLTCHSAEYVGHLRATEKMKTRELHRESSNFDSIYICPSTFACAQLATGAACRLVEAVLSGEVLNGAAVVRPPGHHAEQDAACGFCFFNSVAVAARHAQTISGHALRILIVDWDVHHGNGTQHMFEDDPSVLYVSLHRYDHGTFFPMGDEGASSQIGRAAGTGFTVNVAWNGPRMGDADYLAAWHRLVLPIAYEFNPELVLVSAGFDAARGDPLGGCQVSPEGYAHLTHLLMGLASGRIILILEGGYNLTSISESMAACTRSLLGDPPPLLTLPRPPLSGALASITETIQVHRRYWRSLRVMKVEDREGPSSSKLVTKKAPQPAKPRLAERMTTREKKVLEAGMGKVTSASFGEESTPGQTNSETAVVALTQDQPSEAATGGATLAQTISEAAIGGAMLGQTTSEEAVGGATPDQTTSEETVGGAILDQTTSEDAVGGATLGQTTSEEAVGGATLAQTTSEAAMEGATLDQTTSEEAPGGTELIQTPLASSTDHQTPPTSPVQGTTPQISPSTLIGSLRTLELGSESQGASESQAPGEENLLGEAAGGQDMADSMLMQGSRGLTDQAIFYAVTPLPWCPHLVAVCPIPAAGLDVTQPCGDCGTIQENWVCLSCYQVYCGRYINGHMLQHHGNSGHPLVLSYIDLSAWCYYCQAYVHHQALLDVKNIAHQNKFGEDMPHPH
Procedure: (§1) The enzymatic HDAC6 and HDAC11 assays were performed using electrophoretic mobility shift assay. Full length human recombinant HDAC6 and HDAC11 proteins were expressed in baculoviral system and purified by affinity chromatography. The enzymatic reactions were assembled in 384 well plates in a total volume of 25 μL in a reaction buffer composing: 100 mM HEPES, pH 7.5, 25 mM KCl, 0.1% bovine serum albumin, 0.01% Triton X-100, 1% DMSO (from compounds) 2 μM of the fluorescently labeled peptide substrate and enzyme. The enzymes were added at a final concentration of 1 nM for HDAC6, and 10 nM for HDAC11. The peptide substrate FAM-RHKK(Ac)—NH2 was used for HDAC6, and FAM-RHKK(tri-fluor-Ac)—NH2 for HDAC11. The compounds were tested at 12 concentrations spaced by 3× dilution intervals. Negative control samples (0%-inhibition in the absence of inhibitor) and positive control samples (100%-inhibition) were assembled in replicates of four in each assay plate. The reactions were incubated at 25° C. and quenched by the addition of 45 μL of termination buffer (100 mM HEPES, pH 7.5, 0.01% Triton X-100, 0.05% SDS).
(§2) The terminated assay plates were analyzed on LabChip® 3000 microfluidic electrophoresis instrument (Perkin Elmer/Caliper Life Sciences). The fluorescence intensity of the electrophoretically separated de-acetylated product and substrate peptide was measured. Activity in each sample was determined as the product to sum ratio (PSR): P/(S+P), where P is the peak height of the product peptide and S is the peak height of the substrate peptide. Percent inhibition (Pinh) is determined using following equation:
(§3) Pinh=(PSR0%−PSRinh)/(PSR0%−PSR100%)*100, where PSRinh is the product sum ratio in the presence of inhibitor, PSR0% is the average product sum ration in the absence of inhibitor and PSR100% is the average product sum ratio in 100%-inhibition control samples. The IC50 values of inhibitors were determined by fitting the %-inhibition curves with 4 parameter dose-response model using XLfit 4 software.
(§4) As set forth in Table-26 and Table-27, below, IC5o values are defined as follows: IC50≦0.1 μM (+++); IC50>0.1 μM and ≦0.5 μM (++); IC50>0.5 μM (+).

[2] = target: T2, Full length human recombinant HDAC11 (Homo sapiens, UniProt Q96DB2); test: In vitro histone deacetylase assay, enzymatic HDAC11 (electrophoretic mobility shift assay); format: biochemical; settings: 10 nM HDAC11; 2 μM peptide substrate FAM-RHKK(tri-fluor-Ac)—NH2; 25° C.; 12 concentrations; read-out: HDAC11 Activity Range (IC50)
T2 construct: Full length human recombinant HDAC6 and HDAC11 proteins were expressed in baculoviral system
T2 sequence (Q96DB2 1-347): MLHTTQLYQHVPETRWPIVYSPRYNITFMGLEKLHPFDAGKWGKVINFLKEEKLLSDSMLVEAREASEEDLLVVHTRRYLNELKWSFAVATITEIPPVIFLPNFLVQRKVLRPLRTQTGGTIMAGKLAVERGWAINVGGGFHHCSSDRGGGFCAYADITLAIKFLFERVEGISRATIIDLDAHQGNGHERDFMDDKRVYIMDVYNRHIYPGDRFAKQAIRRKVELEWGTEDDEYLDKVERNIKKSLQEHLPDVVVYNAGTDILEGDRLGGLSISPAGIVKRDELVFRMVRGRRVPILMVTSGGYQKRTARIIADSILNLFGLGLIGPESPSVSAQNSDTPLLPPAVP
Procedure: as §1, §2, §3, §4

| SMILES | IC50 [1] [nM] | IC50 [2] [nM] |
| --- | --- | --- |
| COc1ccc(CN2CCC3(CCc4ccc(C(=O)NO)cc4C3)C2)cc1 (centres unmarked) [Compound I-3, N-hydroxy-1′-(4-methoxybenzyl)-3,4-dihydro-1H-spiro[naphthalene-2,3′-pyrrolidine]-7-carboxamide] | 100 to 500 | > 500 |
| O=C(NO)c1ccc2c(c1)CC1(CC2)CCN(c2ccncc2)C1=O (centres unmarked) [Compound I-30, N-hydroxy-2′-oxo-1′-(pyridin-4-yl)-3,4-dihydro-1H-spiro[naphthalene-2,3′-pyrrolidine]-7-carboxamide] | ≤ 100 | > 500 |
| COc1ccc(S(=O)(=O)N2CCC3(CCc4ccc(C(=O)NO)cc4C3)C2)cc1 (centres unmarked) [Compound I-2, N-hydroxy-1′-((4-methoxyphenyl)sulfonyl)-3,4-dihydro-1H-spiro[naphthalene-2,3′-pyrrolidine]-7-carboxamide] | ≤ 100 | > 500 |
| O=C(NO)c1ccc2c(c1)C[C@]1(CC2)CCN(Cc2ccc(F)cc2)C1=O [Compound I-42, (R)-1′-(4-fluorobenzyl)-N-hydroxy-2′-oxo-3,4-dihydro-1H-spiro[naphthalene-2,3′-pyrrolidine]-7-carboxamide] | ≤ 100 | ≤ 100 |
| O=C(NO)c1ccc2c(c1)C[C@]1(CC2)CCN(Cc2ccccc2OC(F)(F)F)C1=O [Compound I-90, (R)—N-hydroxy-2′-oxo-1′-(2-(trifluoromethoxy)benzyl)-3,4-dihydro-1H-spiro[naphthalene-2,3′-pyrrolidine]-7-carboxamide] | ≤ 100 | ≤ 100 |
| Cc1ccccc1CN1CC[C@@]2(CCc3ccc(C(=O)NO)cc3C2)C1=O [Compound I-59, (S)—N-hydroxy-1′-(2-methylbenzyl)-2′-oxo-3,4-dihydro-1H-spiro[naphthalene-2,3′-pyrrolidine]-7-carboxamide] | ≤ 100 | > 500 |
| CC#CCN1CC[C@@]2(CCc3ccc(C(=O)NO)cc3C2)C1=O [Compound I-55, (S)-1′-(but-2-yn-1-yl)-N-hydroxy-2′-oxo-3,4-dihydro-1H-spiro[naphthalene-2,3′-pyrrolidine]-7-carboxamide] | ≤ 100 | > 500 |
| O=C(NO)c1ccc2c(c1)C[C@]1(CCNC1=O)CC2 [Compound I-47, (S)—N-hydroxy-2′-oxo-3,4-dihydro-1H-spiro[naphthalene-2,3′-pyrrolidine]-7-carboxamide] | ≤ 100 | > 500 |
| Cc1ccccc1CN1CC[C@]2(CCc3ccc(C(=O)NO)cc3C2)C1=O [Compound I-87, (R)—N-hydroxy-1′-(2-methylbenzyl)-2′-oxo-3,4-dihydro-1H-spiro[naphthalene-2,3′-pyrrolidine]-7-carboxamide] | ≤ 100 | ≤ 100 |
| O=C(NO)c1ccc2c(c1)C[C@@]1(CC2)CCN(Cc2cccnc2)C1=O [Compound I-70, (S)—N-hydroxy-2′-oxo-1′-(pyridin-3-ylmethyl)-3,4-dihydro-1H-spiro[naphthalene-2,3′-pyrrolidine]-7-carboxamide] | ≤ 100 | > 500 |

The next lines start with the values.

| IC50 [1] [nM] | IC50 [2] [nM] | SMILES |
| --- | --- | --- |
| ≤ 100 | ≤ 100 | O=C(NO)c1ccc2c(c1)OC1(CC2)CCN(S(=O)(=O)C2CCCCC2)CC1 [II-3, 1′-(cyclohexylsulfonyl)-N-hydroxyspiro[chromane-2,4′-piperidine]-7-carboxamide] |
| ≤ 100 | > 500 | COc1ccc(S(=O)(=O)N2CCC3(CCc4ccc(C(=O)NO)cc4O3)CC2)cc1 [II-2, N-hydroxy-1′-((4-methoxyphenyl)sulfonyl)spiro[chromane-2,4′-piperidine]-7-carboxamide] |
| ≤ 100 | > 500 | O=C(NO)c1ccc2c(c1)C[C@@]1(CC2)CC(=O)N(Cc2ccc(F)cc2)C1 [Compound I-129, (S)-1′-(4-fluorobenzyl)-N-hydroxy-5′-oxo-3,4-dihydro-1H-spiro[naphthalene-2,3′-pyrrolidine]-7-carboxamide] |
| ≤ 100 | > 500 | CN1CC[C@@]2(CCc3ccc(C(=O)NO)cc3C2)C1=O [Compound I-121, (S)—N-hydroxy-1′-methyl-2′-oxo-3,4-dihydro-1H-spiro[naphthalene-2,3′-pyrrolidine]-7-carboxamide] |
| ≤ 100 | ≤ 100 | O=C(NO)c1ccc2c(c1)C[C@]1(CC2)CCN(Cc2ccc(OC(F)(F)F)cc2)C1=O [Compound I-100, (R)—N-hydroxy-2′-oxo-1′-(4-(trifluoromethoxy)benzyl)-3,4-dihydro-1H-spiro[naphthalene-2,3′-pyrrolidine]-7-carboxamide] |
| ≤ 100 | ≤ 100 | O=C(NO)c1ccc2c(c1)C[C@]1(CC2)CCN(c2ccc(Oc3ccccc3)cc2)C1=O [Compound I-106, (R)—N-hydroxy-2′-oxo-1′-(4-phenoxyphenyl)-3,4-dihydro-1H-spiro[naphthalene-2,3′-pyrrolidine]-7-carboxamide] |
| ≤ 100 | > 500 | O=C(NO)c1ccc2c(c1)C[C@]1(CC2)CCN(c2cccc3c2OCC3)C1=O [Compound I-108, (R)-1′-(2,3-dihydrobenzofuran-7-yl)-N-hydroxy-2′-oxo-3,4-dihydro-1H-spiro[naphthalene-2,3′-pyrrolidine]-7-carboxamide] |
| ≤ 100 | 100 to 500 | O=C(NO)c1ccc2c(c1)C[C@]1(CC2)CCN(Cc2ccc(C(F)(F)F)cc2)C1=O [Compound I-127, (R)—N-hydroxy-2′-oxo-1′-(4-(trifluoromethyl)benzyl)-3,4-dihydro-1H-spiro[naphthalene-2,3′-pyrrolidine]-7-carboxamide] |
| ≤ 100 | > 500 | O=C(NO)c1ccc2c(c1)C[C@]1(CC2)CC(=O)N(CC2COC2)C1 [Compound I-146, (R)—N-hydroxy-1′-(oxetan-3-ylmethyl)-5′-oxo-3,4-dihydro-H-spiro[naphthalene-2,3′-pyrrolidine]-7-carboxamide] |
